A word on the IC50: it is the concentration needed to halve the response being measured. What is called Ki is the dissociation constant of the complex between target and ligand, obtained from inhibition or displacement.

The target of experiment [1] is T1, 5-hydroxytryptamine receptor 2C (Homo sapiens, UniProt P28335).
T1 sequence (P28335 whole entry): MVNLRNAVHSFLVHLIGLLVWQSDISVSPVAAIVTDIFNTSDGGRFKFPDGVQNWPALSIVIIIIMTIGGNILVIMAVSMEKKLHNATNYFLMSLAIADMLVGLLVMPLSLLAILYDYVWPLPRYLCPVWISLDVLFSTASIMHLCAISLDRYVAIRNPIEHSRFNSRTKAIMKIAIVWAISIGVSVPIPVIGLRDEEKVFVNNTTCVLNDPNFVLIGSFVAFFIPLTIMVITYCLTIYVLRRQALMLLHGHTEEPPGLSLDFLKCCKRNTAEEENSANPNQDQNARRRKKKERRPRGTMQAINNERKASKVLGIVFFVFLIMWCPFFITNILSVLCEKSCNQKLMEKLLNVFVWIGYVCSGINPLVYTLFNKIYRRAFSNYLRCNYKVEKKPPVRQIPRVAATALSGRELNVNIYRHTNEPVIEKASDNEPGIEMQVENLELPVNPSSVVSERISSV
The experiment can be described thus: DRUGMATRIX: Serotonin (5-Hydroxytryptamine) 5-HT2C radioligand binding (ligand: [3H] Mesulergine). The settings on record: Not Active = under 50% inhibition at 10 µM; for Ki: read-out: Ki. The class given is cell membranes, CHO-K1, Membrane.

For experiment [2], the target named is T2, Alpha-2C adrenergic receptor (Homo sapiens, UniProt P18825).
T2 sequence (P18825 whole entry): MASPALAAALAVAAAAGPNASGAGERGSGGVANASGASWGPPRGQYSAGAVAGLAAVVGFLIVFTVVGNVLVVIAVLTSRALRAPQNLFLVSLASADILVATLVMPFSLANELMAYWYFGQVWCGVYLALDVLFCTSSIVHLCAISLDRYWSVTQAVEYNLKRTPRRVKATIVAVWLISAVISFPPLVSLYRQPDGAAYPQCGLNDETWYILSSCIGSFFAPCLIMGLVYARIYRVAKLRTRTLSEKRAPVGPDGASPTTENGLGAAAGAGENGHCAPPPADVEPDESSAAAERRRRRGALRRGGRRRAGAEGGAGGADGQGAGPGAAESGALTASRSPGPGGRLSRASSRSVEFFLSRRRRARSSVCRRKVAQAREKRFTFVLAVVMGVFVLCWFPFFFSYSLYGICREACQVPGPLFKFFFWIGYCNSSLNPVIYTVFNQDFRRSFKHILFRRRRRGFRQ
The experiment can be described thus: DRUGMATRIX: Adrenergic Alpha-2C radioligand binding (ligand: [3H] MK-912). The class given is cell membranes, Sf9, Membrane. Particulars: sf9.

The target of experiment [3] is Carbonic anhydrase 2 (Homo sapiens, UniProt P00918). The experiment can be described thus: DRUGMATRIX: Carbonic Anhydrase II enzyme inhibition (substrate: 4-Nitrophenyl acetate (4-NPA)). It counts as tissue-based, Erythrocyte. The settings on record: erythrocyte; Not Active = under 50% inhibition at 10 µM.

Take `N[C@@H](Cc1ccc(F)cc1)C(=O)O`: the IC50 entry in experiment [1] (cho-k1), in experiment [2] and in experiment [3] was “Not Active” each time.
Take `CCOC(=O)[C@H](CCc1ccccc1)N[C@@H](C)C(=O)N1Cc2ccccc2C[C@H]1C(=O)O`: the IC50 entry in experiment [1] (cho-k1), in experiment [2] and in experiment [3] was “Not Active” in each case.
For `CCOC(=O)[C@H](CCc1ccccc1)N[C@@H](C)C(=O)N1CCC[C@H]1C(=O)O`, the IC50 result in experiment [1] (cho-k1), in experiment [2] and in experiment [3] was “Not Active” in each case.
Consider `C=C1/C(=C\C=C2/CCC[C@]3(C)[C@@H]([C@H](C)CCCC(C)C)CC[C@@H]23)C[C@@H](O)C[C@@H]1O` [ALFACALCIDOL], for which the IC50 entry in experiment [1] (cho-k1), in experiment [2] and in experiment [3] was “Not Active” throughout.
Turning to `CO[C@H]1[C@@H](O)[C@H](N)[C@@H](O[C@H]2O[C@H]([C@H](C)N)CC[C@H]2N)[C@H](O)[C@@H]1N(C)C(=O)CN` [ASTROMICIN], the IC50 entry in experiment [1] (cho-k1), in experiment [2] and in experiment [3] was “Not Active” each time.
With `[N-]=[N+]=CC(=O)OC[C@H](N)C(=O)O` [AZASERINE], the IC50 result in experiment [1] (cho-k1), in experiment [2] and in experiment [3] was “Not Active” each time.
As for `CC[C@H]1OC(=O)[C@H](C)[C@@H](O[C@H]2C[C@@](C)(OC)[C@@H](O)[C@H](C)O2)[C@H](C)[C@@H](O[C@@H]2O[C@H](C)C[C@H](N(C)C)[C@H]2O)[C@](C)(O)C[C@@H](C)CN(C)[C@H](C)[C@@H](O)[C@]1(C)O` [AZITHROMYCIN], the IC50 result in experiment [1] (cho-k1), in experiment [2] and in experiment [3] was “Not Active” throughout.
As to `CC(C)C[C@H]1C(=O)N2CCC[C@H]2[C@]2(O)O[C@](NC(=O)[C@@H]3C=C4c5cccc6[nH]c(Br)c(c56)C[C@H]4N(C)C3)(C(C)C)C(=O)N12` [BROMOCRIPTINE], the values for the IC50 in experiment [1] (read-out: IC50) and in experiment [3] were 532 nM and “Not Active”, respectively. Also, the Ki in experiment [1] was 278 nM.
For the compound `CS(=O)(=O)OCCCCOS(C)(=O)=O` [BUSULFAN], the IC50 entry in experiment [1] (cho-k1), in experiment [2] and in experiment [3] was “Not Active” each time.
With `COc1cc(CNC(=O)CCCC/C=C/C(C)C)ccc1O` [CAPSAICIN], the IC50 entry in experiment [1] (cho-k1), in experiment [2] and in experiment [3] was “Not Active” throughout.
On to `NC(=O)N1c2ccccc2C=Cc2ccccc21` [CARBAMAZEPINE], for which the IC50 result in experiment [1] (cho-k1), in experiment [2] and in experiment [3] was “Not Active” throughout.
`CCOC(=O)n1ccn(C)c1=S` [CARBIMAZOLE]: the IC50 result in experiment [1] (cho-k1), in experiment [2] and in experiment [3] was “Not Active” in each case.
Regarding `Oc1ccccc1O` [CATECHOL], the IC50 result in experiment [1] (cho-k1), in experiment [2] and in experiment [3] was “Not Active” each time.
As to `CO[C@@]1(NC(=O)CSCC#N)C(=O)N2C(C(=O)O)=C(CSc3nnnn3C)CS[C@@H]21` [CEFMETAZOLE], the IC50 entry in experiment [1] (cho-k1), in experiment [2] and in experiment [3] was “Not Active” in each case.
For the compound `CN(C(=O)CCCOc1ccc2[nH]c(=O)ccc2c1)C1CCCCC1` [CILOSTAMIDE], the IC50 result in experiment [1] (cho-k1), in experiment [2] and in experiment [3] was “Not Active” in each case.
`Nc1nc(Cl)nc2c1ncn2[C@H]1C[C@H](O)[C@@H](CO)O1` [CLADRIBINE]: the IC50 result in experiment [1] (cho-k1), in experiment [2] and in experiment [3] was “Not Active” in each case.
As to `CC[C@H]1OC(=O)[C@H](C)[C@@H](O[C@H]2C[C@@](C)(OC)[C@@H](O)[C@H](C)O2)[C@H](C)[C@@H](O[C@@H]2O[C@H](C)C[C@H](N(C)C)[C@H]2O)[C@](C)(OC)C[C@@H](C)C(=O)[C@H](C)[C@@H](O)[C@]1(C)O` [CLARITHROMYCIN], the IC50 result in experiment [1] (cho-k1), in experiment [2] and in experiment [3] was “Not Active” throughout.
In the case of `CCC[C@@H]1C[C@@H](C(=O)N[C@@H]([C@H]2O[C@H](SC)[C@H](O)[C@@H](O)[C@H]2O)[C@H](C)Cl)N(C)C1` [CLINDAMYCIN], the IC50 entry in experiment [1] (cho-k1), in experiment [2] and in experiment [3] was “Not Active” throughout.
For the compound `O=C(O)c1cc(=O)c2c(OCC(O)COc3cccc4oc(C(=O)O)cc(=O)c34)cccc2o1` [CROMOLYN], the IC50 entry in experiment [1] (cho-k1), in experiment [2] and in experiment [3] was “Not Active” each time.
Consider `O=P1(N(CCCl)CCCl)NCCCO1` (stereo unspecified) [CYCLOPHOSPHAMIDE ANHYDROUS], for which the IC50 entry in experiment [1] (cho-k1), in experiment [2] and in experiment [3] was “Not Active” throughout.
On to `CC(=O)O[C@]1(C(C)=O)CC[C@H]2[C@@H]3C=C(Cl)C4=CC(=O)[C@@H]5C[C@@H]5[C@]4(C)[C@H]3CC[C@@]21C` [CYPROTERONE ACETATE], for which the IC50 entry in experiment [1] (cho-k1), in experiment [2] and in experiment [3] was “Not Active” each time.
Regarding `Nc1nc(N)nc(NC2CC2)n1` [CYROMAZINE], the IC50 result in experiment [1] (cho-k1), in experiment [2] and in experiment [3] was “Not Active” in each case.
Consider `CCN[C@@H](C)Cc1cccc(C(F)(F)F)c1` [DEXFENFLURAMINE], for which the IC50 result in experiment [1] (cho-k1), in experiment [2] and in experiment [3] was “Not Active” throughout.
For the compound `C[C@H](C(=O)O)c1cccc(C(=O)c2ccccc2)c1` [DEXKETOPROFEN], the IC50 result in experiment [1] (cho-k1), in experiment [2] and in experiment [3] was “Not Active” each time.
Consider `CN1C(=O)CN=C(c2ccccc2)c2cc(Cl)ccc21` [DIAZEPAM], for which the IC50 entry in experiment [1] (cho-k1), in experiment [2] and in experiment [3] was “Not Active” throughout.
In the case of `CN1C[C@H](C(=O)N[C@]2(C)O[C@@]3(O)[C@@H]4CCCN4C(=O)[C@H](Cc4ccccc4)N3C2=O)C[C@@H]2c3cccc4[nH]cc(c34)C[C@H]21` [DIHYDROERGOTAMINE], the IC50 in experiment [1] (read-out: IC50) is 90 nM; in experiment [3], “Not Active”. Besides, in experiment [1], the Ki is 47 nM.
`Cc1c(N(C)CS(=O)(=O)[O-])c(=O)n(-c2ccccc2)n1C.[Na+]` [DIPYRONE SODIUM]: the IC50 entry in experiment [1] (cho-k1), in experiment [2] and in experiment [3] was “Not Active” throughout.
With `CC(CCc1ccc(O)cc1)NCCc1ccc(O)c(O)c1` (stereo unspecified) [DOBUTAMINE], the IC50 entry in experiment [1] (cho-k1), in experiment [2] and in experiment [3] was “Not Active” in each case.
As for `CCn1cc(C(=O)O)c(=O)c2cc(F)c(N3CCNCC3)nc21` [ENOXACIN], the IC50 result in experiment [1] (cho-k1), in experiment [2] and in experiment [3] was “Not Active” each time.
For the compound `CCC(=O)O[C@H]1[C@H](O[C@@H]2[C@@H](C)[C@H](O[C@H]3C[C@@](C)(OC)[C@@H](O)[C@H](C)O3)[C@@H](C)C(=O)O[C@H](CC)[C@@](C)(O)[C@H](O)[C@@H](C)C(=O)[C@H](C)C[C@@]2(C)O)O[C@H](C)C[C@@H]1N(C)C` [ERYTHROMYCIN PROPIONATE], the IC50 result in experiment [1] (cho-k1), in experiment [2] and in experiment [3] was “Not Active” in each case.
Turning to `C=C(CC)C(=O)c1ccc(OCC(=O)O)c(Cl)c1Cl` [ETHACRYNIC ACID], the IC50 entry in experiment [1] (cho-k1), in experiment [2] and in experiment [3] was “Not Active” throughout.
As to `CCOC(=O)C1=C(C)NC(C)=C(C(=O)OC)C1c1cccc(Cl)c1Cl` (stereo unspecified) [FELODIPINE], the IC50 entry in experiment [1] (cho-k1), in experiment [2] and in experiment [3] was “Not Active” throughout.
On to `CC(C(=O)O)c1ccc(-c2ccccc2)c(F)c1` (stereo unspecified) [FLURBIPROFEN], for which the IC50 result in experiment [1] (cho-k1), in experiment [2] and in experiment [3] was “Not Active” each time.
Consider `NC[C@@H]1O[C@H](O[C@H]2[C@@H](O)[C@H](O[C@@H]3[C@@H](O)[C@H](N)C[C@H](N)[C@H]3O[C@H]3O[C@H](CN)[C@@H](O)[C@H](O)[C@H]3N)O[C@@H]2CO)[C@H](N)[C@@H](O)[C@@H]1O` [FRAMYCETIN], for which the IC50 result in experiment [1] (cho-k1), in experiment [2] and in experiment [3] was “Not Active” each time.
In the case of `Cc1cnc(C(=O)NCCc2ccc(S(=O)(=O)NC(=O)NC3CCCCC3)cc2)cn1` [GLIPIZIDE], the IC50 entry in experiment [1] (cho-k1), in experiment [2] and in experiment [3] was “Not Active” in each case.
`Cc1c(F)c(N2CCNC(C)C2)cc2c1c(=O)c(C(=O)O)cn2C1CC1` (stereo unspecified) [GREPAFLOXACIN]: the IC50 result in experiment [1] (cho-k1), in experiment [2] and in experiment [3] was “Not Active” in each case.
For `C/C=C\c1ccc(O)c(OC)c1` [ISOEUGENOL], the IC50 result in experiment [1] (cho-k1), in experiment [2] and in experiment [3] was “Not Active” each time.

Values taken from ChEMBL document CHEMBL1909046, “DrugMatrix in vitro pharmacology data”.
